Inhibition in vivo, IC50 and Ratio IC50 data for 39 compounds are collected here from ChEMBL document CHEMBL4387748, “Chalcone derivatives bearing chromen or benzo[f]chromen moieties: Design, synthesis, and evaluations of anti-inflammatory, analgesic, selective COX-2 inhibitory activities” (Bioorg Med Chem Lett, 2019).

Assay [1] concerns Mus musculus. Kind of assay: Anti-inflammatory activity in mouse assessed as inhibition of xylene-induced ear edema at 30 mg/kg, ip dosed prior to xylene challenge and measured 1 hr post xylene injection relative to control. Format: functional.
Assay [2] concerns Mus musculus. Kind of assay: Analgesic activity in mouse at 30 mg/kg, ip measured after 60 mins by hot plate technique relative to control. Format: functional. Particulars: 1 h.
For assay [3], the target named is Prostaglandin G/H synthase 1 (Ovis aries) (UniProt P05979).
The target of assay [4] is Prostaglandin G/H synthase 2 (Ovis aries) (UniProt P79208).
Prostaglandin G/H synthase 2 (Ovis aries), sequence (P79208 whole entry, looked up): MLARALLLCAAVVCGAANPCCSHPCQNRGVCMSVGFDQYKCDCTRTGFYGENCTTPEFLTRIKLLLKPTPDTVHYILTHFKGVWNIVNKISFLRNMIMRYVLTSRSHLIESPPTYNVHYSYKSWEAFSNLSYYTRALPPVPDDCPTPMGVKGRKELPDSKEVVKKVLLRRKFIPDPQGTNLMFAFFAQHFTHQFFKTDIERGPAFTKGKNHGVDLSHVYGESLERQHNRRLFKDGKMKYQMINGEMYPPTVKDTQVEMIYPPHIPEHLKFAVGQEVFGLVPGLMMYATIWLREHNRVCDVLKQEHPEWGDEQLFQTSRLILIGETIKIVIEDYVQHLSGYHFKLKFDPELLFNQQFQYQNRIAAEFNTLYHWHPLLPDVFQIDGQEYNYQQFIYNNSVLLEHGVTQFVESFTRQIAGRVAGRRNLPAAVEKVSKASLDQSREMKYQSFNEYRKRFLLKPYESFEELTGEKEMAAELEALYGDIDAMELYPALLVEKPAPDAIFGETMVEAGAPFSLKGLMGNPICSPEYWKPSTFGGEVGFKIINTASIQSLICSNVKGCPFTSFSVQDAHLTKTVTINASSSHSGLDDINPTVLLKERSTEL
Assay [5] in a line: Selectivity index, ratio of IC50 for COX1 (unknown origin) to IC50 for COX2 (unknown origin). Particulars: Homo sapiens.

Consider `O=C(/C=C/C1=Cc2ccccc2OC1)c1ccc(Cl)cc1`, for which the figures for the inhibition in vivo at 30 mg/kg in the assay with Mus musculus [1] and in the assay on Mus musculus [2] were 56.1% and 66.7 to 100%, respectively.

With `CN(C)c1ccc(C(=O)/C=C/C2=Cc3ccccc3OC2)cc1`, the values for the inhibition in vivo at 30 mg/kg with Mus musculus [1] and in the assay on Mus musculus [2] were 57.3% and 66.7 to 100%, respectively.

For the compound `Nc1ccc(C(=O)/C=C/C2=Cc3ccccc3OC2)cc1`, the inhibition in vivo – broadly, the percentage by which the read-out fell short of the control – at 30 mg/kg was 52.6% with Mus musculus [1] and 66.7 to 100% in the assay with Mus musculus [2].

In the case of `Nc1ccc(C(=O)/C=C/C2=Cc3c(ccc4ccccc34)OC2)cc1`, the figures for the inhibition in vivo at 30 mg/kg with Mus musculus [1] and with Mus musculus [2] were 67.1% and 96.2 to 100%, respectively.

For the compound `Cc1ccc(C(=O)/C=C/C2=Cc3ccccc3OC2)cc1C`, the values for the inhibition in vivo at 30 mg/kg in the assay with Mus musculus [1] and with Mus musculus [2] were 48.1% and 66.7 to 100%, respectively.

Consider `O=C(/C=C/C1=Cc2c(ccc3ccccc23)OC1)c1ccc(C(F)(F)F)cc1`, for which the half-maximal inhibitory concentration (IC50) (commonly the concentration at which inhibition is half-maximal) was found to be 8.63 µM in assay [3] and 0.33 µM in assay [4]. Also, in assay [5], the Ratio IC50 amounted to 26.1. The inhibition in vivo at 30 mg/kg in the assay with Mus musculus [1] was determined as 83.6%; in the assay with Mus musculus [2], 100%.

In the case of `Cc1ccc(C(=O)/C=C/C2=Cc3c(ccc4ccccc34)OC2)cc1C`, the inhibition in vivo at 30 mg/kg with Mus musculus [1] was 54.2%; in the assay with Mus musculus [2], 96.2 to 100%.

Regarding `O=C(/C=C/C1=Cc2c(ccc3ccccc23)OC1)c1ccccc1F`, the IC50 in assay [3] came to 6.41 µM; in assay [4] it was 0.31 µM. Also, in assay [5], the Ratio IC50 was determined as 20.7. Moreover, the inhibition in vivo at 30 mg/kg is 73.3% in the assay with Mus musculus [1] and 96.2 to 100% with Mus musculus [2].

With `O=C(/C=C/C1=Cc2ccccc2OC1)c1ccccc1Cl`, the inhibition in vivo at 30 mg/kg in the assay with Mus musculus [1] was 52.3%; in the assay with Mus musculus [2] it was 66.7 to 100%.

With `O=C(/C=C/C1=Cc2c(ccc3ccccc23)OC1)c1ccccc1Br`, the inhibition in vivo at 30 mg/kg in the assay with Mus musculus [1] is 79.8%; in the assay on Mus musculus [2], 96.2 to 100%.

Turning to `COc1ccc(C(=O)/C=C/C2=Cc3ccccc3OC2)cc1OC`, the half-maximal inhibitory concentration (IC50) in assay [3] stood at 7.08 µM; in assay [4], 0.46 µM. Also, the Ratio IC50 in assay [5] is 15.4. Moreover, the inhibition in vivo at 30 mg/kg with Mus musculus [1] is 67.6%; in the assay with Mus musculus [2] it was 66.7 to 100%.

`O=C(/C=C/C1=Cc2ccccc2OC1)c1ccccc1F`: the inhibition in vivo at 30 mg/kg with Mus musculus [1] was 64.4%; in the assay with Mus musculus [2] it was 66.7 to 100%.

For the compound `CN(C)c1ccc(C(=O)/C=C/C2=Cc3c(ccc4ccccc34)OC2)cc1`, the inhibition in vivo at 30 mg/kg in the assay on Mus musculus [1] was 67.2%; with Mus musculus [2], 96.2 to 100%.

As to `O=C(/C=C/C1=Cc2ccccc2OC1)c1cccc(Br)c1`, the inhibition in vivo at 30 mg/kg in the assay with Mus musculus [1] was 51.7%; with Mus musculus [2] it was 66.7 to 100%.

As to `O=C(/C=C/C1=Cc2c(ccc3ccccc23)OC1)c1ccc([N+](=O)[O-])cc1`, the figures for the IC50 in assay [3] and in assay [4] were 7.77 µM and 0.25 µM, respectively. Further, the Ratio IC50 in assay [5] was found to be 31.1. Moreover, the inhibition in vivo at 30 mg/kg in the assay on Mus musculus [1] amounted to 76.3%; with Mus musculus [2], 100%.

Turning to `O=C(/C=C/C1=Cc2ccccc2OC1)c1ccc(Br)cc1`, the IC50 in assay [3] was 7.21 µM; in assay [4], 0.42 µM. Besides, the Ratio IC50 in assay [5] amounted to 17.2. Moreover, the inhibition in vivo at 30 mg/kg with Mus musculus [1] is 66%; in the assay with Mus musculus [2], 66.7 to 100%.

For the compound `O=C(/C=C/C1=Cc2c(ccc3ccccc23)OC1)c1cccc(F)c1`, the inhibition in vivo at 30 mg/kg was 70.1% in the assay with Mus musculus [1] and 96.2 to 100% in the assay on Mus musculus [2].

For `COc1ccc2c(c1)c(CC(=O)O)c(C)n2C(=O)c1ccc(Cl)cc1` [INDOMETHACIN], the inhibition in vivo at 30 mg/kg with Mus musculus [1] lay within 64.3 to 82.2%.

For `O=C(/C=C/C1=Cc2ccccc2OC1)c1cccc(F)c1`, the inhibition in vivo at 30 mg/kg with Mus musculus [1] is 52.4%; in the assay on Mus musculus [2], 66.7 to 100%.

On to `O=C(/C=C/C1=Cc2c(ccc3ccccc23)OC1)c1ccc(Cl)cc1`, for which the inhibition in vivo at 30 mg/kg was 67.1% with Mus musculus [1] and 96.2 to 100% in the assay with Mus musculus [2].

`O=C(/C=C/C1=Cc2ccccc2OC1)c1ccc([N+](=O)[O-])cc1`: the inhibition in vivo at 30 mg/kg in the assay with Mus musculus [1] was 50.8%; in the assay with Mus musculus [2] it was 85.1%.

Consider `O=C(/C=C/C1=Cc2ccccc2OC1)c1ccc(Cl)cc1Cl`, for which the results for the inhibition in vivo at 30 mg/kg with Mus musculus [1] and with Mus musculus [2] were 53.3% and 66.7 to 100%, respectively.

Take `O=C(/C=C/C1=Cc2ccccc2OC1)c1ccc(F)cc1`: the IC50 in assay [3] is 8.32 µM; in assay [4], 0.37 µM. Moreover, the Ratio IC50 in assay [5] was 22.5. The inhibition in vivo at 30 mg/kg is 65.6% with Mus musculus [1] and 66.7 to 100% in the assay on Mus musculus [2].

Regarding `COc1ccc(C(=O)/C=C/C2=Cc3ccccc3OC2)cc1`, the IC50 in assay [3] amounted to 9.2 µM; in assay [4], 0.46 µM. Moreover, in assay [5], the Ratio IC50 was 20. The values for the inhibition in vivo at 30 mg/kg in the assay with Mus musculus [1] and in the assay on Mus musculus [2] were 66.2% and 66.7 to 100%, respectively.

As for `O=C(/C=C/C1=Cc2c(ccc3ccccc23)OC1)c1cccc(Cl)c1`, the inhibition in vivo at 30 mg/kg in the assay on Mus musculus [1] is 75%; in the assay on Mus musculus [2], 96.2 to 100%.

Regarding `O=C(/C=C/C1=Cc2ccccc2OC1)c1ccc(C(F)(F)F)cc1`, the figures for the IC50 in assay [3] and in assay [4] were 7.75 µM and 0.83 µM, respectively. Moreover, in assay [5], the Ratio IC50 stood at 9.34. The results for the inhibition in vivo at 30 mg/kg in the assay on Mus musculus [1] and in the assay with Mus musculus [2] were 75.5% and 100%, respectively.

On to `O=C(/C=C/C1=Cc2c(ccc3ccccc23)OC1)c1ccc(Br)cc1`, for which the inhibition in vivo at 30 mg/kg was 57.5% with Mus musculus [1] and 96.2 to 100% in the assay on Mus musculus [2].

For `Cc1ccc(C(=O)/C=C/C2=Cc3c(ccc4ccccc34)OC2)cc1`, the values for the inhibition in vivo at 30 mg/kg in the assay with Mus musculus [1] and in the assay with Mus musculus [2] were 74.6% and 96.2 to 100%, respectively.

As to `O=C(/C=C/C1=Cc2ccccc2OC1)c1ccccc1Br`, the figures for the inhibition in vivo at 30 mg/kg in the assay on Mus musculus [1] and in the assay with Mus musculus [2] were 56.6% and 66.7 to 100%, respectively.

As for `CCc1ccc(C(=O)/C=C/C2=Cc3ccccc3OC2)cc1`, the IC50 in assay [3] amounted to 6.22 µM; in assay [4] it was 0.39 µM. For the same compound, the Ratio IC50 in assay [5] was 15.9. Moreover, the values for the inhibition in vivo at 30 mg/kg with Mus musculus [1] and in the assay with Mus musculus [2] were 68.1% and 66.7 to 100%, respectively.

Turning to `CCc1ccc(C(=O)/C=C/C2=Cc3c(ccc4ccccc34)OC2)cc1`, the IC50 in assay [3] stood at 8.89 µM; in assay [4], 0.43 µM. The Ratio IC50 in assay [5] came out at 20.7. Further, the figures for the inhibition in vivo at 30 mg/kg with Mus musculus [1] and with Mus musculus [2] were 83.1% and 96.2 to 100%, respectively.

Take `O=C(/C=C/C1=Cc2c(ccc3ccccc23)OC1)c1ccc(F)cc1`: the inhibition in vivo at 30 mg/kg in the assay with Mus musculus [1] is 57.3%; in the assay on Mus musculus [2], 96.2 to 100%.

Regarding `COc1ccc(C(=O)/C=C/C2=Cc3c(ccc4ccccc34)OC2)cc1OC`, the results for the inhibition in vivo at 30 mg/kg in the assay on Mus musculus [1] and in the assay on Mus musculus [2] were 55.1% and 96.2 to 100%, respectively.

Regarding `O=C(/C=C/C1=Cc2c(ccc3ccccc23)OC1)c1cccc(Br)c1`, the figures for the inhibition in vivo at 30 mg/kg in the assay on Mus musculus [1] and in the assay on Mus musculus [2] were 67.9% and 96.2 to 100%, respectively.

For `O=C(/C=C/C1=Cc2ccccc2OC1)c1cccc(Cl)c1`, the inhibition in vivo at 30 mg/kg with Mus musculus [1] was 51%; in the assay with Mus musculus [2] it was 66.7 to 100%.

As for `O=C(/C=C/C1=Cc2c(ccc3ccccc23)OC1)c1ccc(Cl)cc1Cl`, the IC50 in assay [3] is 7.92 µM; in assay [4], 0.29 µM. In addition, in assay [5], the Ratio IC50 is 27.3. In addition, the inhibition in vivo at 30 mg/kg in the assay on Mus musculus [1] came to 84.1%; with Mus musculus [2] it was 100%.

As to `O=C(/C=C/C1=Cc2c(ccc3ccccc23)OC1)c1ccccc1Cl`, the values for the inhibition in vivo at 30 mg/kg in the assay with Mus musculus [1] and with Mus musculus [2] were 66.1% and 96.2 to 100%, respectively.

For the compound `Cc1ccc(C(=O)/C=C/C2=Cc3ccccc3OC2)cc1`, the inhibition in vivo at 30 mg/kg in the assay with Mus musculus [1] is 53.1%; in the assay with Mus musculus [2], 66.7 to 100%.

In the case of `COc1ccc(C(=O)/C=C/C2=Cc3c(ccc4ccccc34)OC2)cc1`, the IC50 in assay [3] was determined as 9.04 µM; in assay [4], 0.38 µM. Also, the Ratio IC50 in assay [5] came to 23.8. The inhibition in vivo at 30 mg/kg is 79.3% with Mus musculus [1] and 96.2 to 100% in the assay with Mus musculus [2].
